Results: ChEMBL document CHEMBL3396967, “Discovery of anthranilamides as a novel class of inhibitors of neurotropic alphavirus replication” (Bioorg Med Chem, 2015)
Active and inactive are the calls of the source. No cut-off for these calls is given here.

Assays:
[1] = test system: Western equine encephalitis virus; test: microbe, parasite or virus in culture; details: BE(2)-C
[2] = Cytotoxicity against human BE(2)-C cells after 18 to 20 hrs by MTT assay; format: cell-based
[3] = test system: Fort Morgan virus; test: Antiviral activity against Fort Morgan virus infected in HEK293 cells assessed as reduction of viral titer by plaque reduction assay relative to untreated control; format: functional, cell-based
[4] = test system: Venezuelan equine encephalitis virus; test: Antiviral activity against Venezuelan equine encephalitis virus TC-83 vaccine infected in HEK293 cells assessed as reduction of viral titer at 25 uM by plaque reduction assay relative to untreated control; format: functional
[5] = biological target: MDR1 (ABCB1, P-glycoprotein) (Homo sapiens, UniProt P08183); test: Inhibition of human MDR1 expressed in MDCK2 cells assessed as increase of rhodamine 123 uptake at 30 uM up to 240 mins relative to 5 uM tariquidar; format: ADME, cell-based, MDCK-II; details: MDCK2 cells expressing human MDR1, probe rhodamine 123, read-out: Activity
[6] = test system: Encephalomyocarditis virus; test: Antiviral activity against Encephalomyocarditis virus infected in HEK293 cells assessed as reduction of viral titer at 25 uM by plaque reduction assay relative to untreated control; format: functional
[7] = test system: Western equine encephalitis virus; format: functional
[8] = test system: Liver; test: (§1) Half life in BALB/c mouse liver microsomes at 1 uM in presence of NADPH by HPLC-MS/MS method; format: ADME; details: microsomes, 1 µM
[9] = test system: Western equine encephalitis virus; format: functional; remark: listed apart in the source
[10] = test system: Fort Morgan virus; format: functional
[11] = Kinetic solubility of the compound in WEEV replication assay medium in presence of 10% fetal bovine serum; format: physicochemical; details: for Kinetic_solubility: serum; for solubility kinetic: WEEV replication assay medium with 10% fetal bovine serum, read-out: Kinetic_solubility
[12] = Inhibition of host cell cap-dependent translation in Cricetinae BSR-T7 cells assessed as suppression of pSV40-LUC activity at 0.1 to 10 uM after 20 hrs; format: functional, cell-based
[13] = test system: Fort Morgan virus; format: functional; remark: listed apart in the source
[14] = test system: BSR-T7; test: Inhibition of host cell cap-independent translation in Cricetinae BSR-T7 cells assessed as suppression of pT7/CITE-LUC activity at 0.1 to 10 uM after 20 hrs; format: functional, cell-based
[15] = test system: Fort Morgan virus; format: functional; remark: listed apart in the source
[16] = test system: California encephalitis virus; test: Antiviral activity against California encephalitis virus infected in HEK293 cells assessed as reduction of viral titer at 25 uM by plaque reduction assay relative to untreated control; format: functional
[17] = test system: Fort Morgan virus; format: functional; remark: listed apart in the source
[18] = biological target: ATP-dependent translocase ABCB1 (Homo sapiens, UniProt P08183); test: Inhibition of human MDR1 expressed in MDCK2 cells assessed as increase of rhodamine 123 uptake at 5 uM up to 240 mins; format: ADME, cell-based; parameters: scale not given: the % may be the effect or the level left; details: mdck-ii, 4 h
[19] = as §1; format: ADME; details: BALB/c, liver microsomes

Chain of MDR1 (ABCB1, P-glycoprotein) (P08183 whole entry): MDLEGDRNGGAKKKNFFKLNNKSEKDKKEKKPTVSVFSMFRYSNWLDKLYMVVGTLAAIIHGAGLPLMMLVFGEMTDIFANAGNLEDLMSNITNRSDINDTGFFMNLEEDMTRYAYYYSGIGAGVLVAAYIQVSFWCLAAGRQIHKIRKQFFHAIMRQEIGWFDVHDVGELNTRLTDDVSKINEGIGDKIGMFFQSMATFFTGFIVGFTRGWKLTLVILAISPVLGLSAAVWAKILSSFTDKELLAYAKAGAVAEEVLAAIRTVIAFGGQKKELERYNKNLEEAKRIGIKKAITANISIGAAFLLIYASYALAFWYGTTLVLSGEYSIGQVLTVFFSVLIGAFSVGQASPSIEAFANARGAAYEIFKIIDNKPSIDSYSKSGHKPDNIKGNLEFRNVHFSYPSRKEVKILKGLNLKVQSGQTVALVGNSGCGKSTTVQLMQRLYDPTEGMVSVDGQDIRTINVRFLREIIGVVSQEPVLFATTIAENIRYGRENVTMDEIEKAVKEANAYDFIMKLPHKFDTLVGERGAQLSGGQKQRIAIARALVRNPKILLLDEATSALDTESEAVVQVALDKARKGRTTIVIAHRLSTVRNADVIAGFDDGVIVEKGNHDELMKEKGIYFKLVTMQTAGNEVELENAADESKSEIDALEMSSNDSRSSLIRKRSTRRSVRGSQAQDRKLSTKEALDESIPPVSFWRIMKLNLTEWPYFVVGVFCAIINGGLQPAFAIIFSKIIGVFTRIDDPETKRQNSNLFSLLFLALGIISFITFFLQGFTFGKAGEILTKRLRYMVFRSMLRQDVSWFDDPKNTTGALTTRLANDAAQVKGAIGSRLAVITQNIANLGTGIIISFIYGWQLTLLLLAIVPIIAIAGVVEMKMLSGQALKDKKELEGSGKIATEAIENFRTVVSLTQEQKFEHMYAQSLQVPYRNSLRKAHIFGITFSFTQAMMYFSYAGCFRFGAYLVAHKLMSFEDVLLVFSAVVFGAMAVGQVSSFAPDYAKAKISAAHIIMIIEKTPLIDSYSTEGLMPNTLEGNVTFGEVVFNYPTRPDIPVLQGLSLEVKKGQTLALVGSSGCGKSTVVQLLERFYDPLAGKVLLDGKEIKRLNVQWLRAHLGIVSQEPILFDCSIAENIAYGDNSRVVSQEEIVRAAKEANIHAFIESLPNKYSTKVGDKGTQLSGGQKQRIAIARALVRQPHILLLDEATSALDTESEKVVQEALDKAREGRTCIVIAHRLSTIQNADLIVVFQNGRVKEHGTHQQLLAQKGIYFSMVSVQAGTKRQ
Chain of ATP-dependent translocase ABCB1 (P08183 whole entry): as above

SMILES | IC50 [1] | CC50 [2] | inhibition at 4 h, 30 µM [5] | Kinetic_solubility [11] | further results
O=C(NCCc1ccncc1)C1CCN(C(=O)NCc2ccc(Cl)cc2)CC1 | 60.2 µM | > 100 µM |  |  | 
O=C(NCCc1ccncc1)C1CCN(C(=O)c2ccccc2NCc2ccc(Cl)cc2)CC1 | 0.56 µM | 75.2 µM | 59.6% | > 250 µg/mL | IC50 [3]: 2.3 µM; inhibition [3]: Dose-dependent effect; fold change (FC) [4]: 10; fold change (FC) [6]: 10; Activity [7]: 11.7 ×10⁶ PFU/ml; t1/2 [8]: 15 min; Activity [9]: 1.6 ×10⁶ PFU/ml; Activity [10]: 9.4 ×10⁶ PFU/ml; IC50 [12]: 1 µM; Activity [13]: 66.6%; inhibition [14]: inactive; Activity [15]: 73.3%; fold change (FC) [16]: 10; Activity [17]: 3.2 ×10⁶ PFU/ml
O=C(NCCc1ccncc1)C1CCN(C(=O)[C@H]2CCCN2C(=O)c2ccc(Cl)cc2)CC1 | > 100 µM | > 100 µM |  |  | 
O=C(NCCc1ccncc1)C1CCN(C(=O)c2ccccc2Oc2ccc(Cl)cc2)CC1 | 6.1 µM | 56 µM | 9.3% |  | Activity ([7]; 5 uM): inactive; t1/2 [8]: 18 min; Activity ([9]; 25 uM): inactive; Activity ([10]; 5 uM): inactive; solubility kinetic [11]: 62 µg/mL; Activity ([13]; 25 uM): inactive; Activity ([15]; 5 uM): inactive; Activity ([17]; 25 uM): inactive
CN(c1ccc(Cl)cc1)c1ccccc1C(=O)N1CCC(C(=O)NCCc2ccncc2)CC1 | 15.4 µM | > 100 µM | 3.9% | > 250 µg/mL | 
O=C(NCCc1ccncc1)C1CCN(C(=O)[C@@H]2CCCN2Cc2ccc(Cl)cc2)CC1 | 13.5 µM | 91.6 µM |  |  | 
O=C(NCCc1ccncc1)C1CCN(C(=O)c2ccccc2Cc2ccc(Cl)cc2)CC1 | 1.46 µM | 70.7 µM | 22.6% |  | t1/2 [8]: 3 min; solubility kinetic [11]: 62 µg/mL
O=C(c1ccc(Cl)cc1)c1ccccc1C(=O)N1CCC(C(=O)NCCc2ccncc2)CC1 | > 50 µM | > 50 µM | 1.8% | > 250 µg/mL | 
O=C(NCCc1ccncc1)C1CCN(C(=O)c2ccccc2Nc2ccc(Cl)cc2)CC1 | 1.6 µM | > 100 µM | 47.7% | > 250 µg/mL | IC50 [3]: 5.2 µM; inhibition [3]: Dose-dependent effect; fold change (FC) [4]: 10; fold change (FC) [6]: 10; Activity [7]: 49.2 ×10⁶ PFU/ml; t1/2 [8]: 19 min; Activity [9]: 3.2 ×10⁶ PFU/ml; IC50 [12]: 2.2 µM; Activity [13]: 58.1%; inhibition [14]: inactive; Activity [15]: 54.6%; fold change (FC) [16]: 10; Activity [17]: 3.7 ×10⁶ PFU/ml
O=C(NCCc1ccncc1)C1CCN(c2cc(=O)n(Cc3ccc(Cl)cc3)c3ccccc23)CC1 | 10.9 µM | 34.1 µM |  |  | 
O=C(NCCc1ccncc1)C1CCN(C(=O)Cc2ccc(Cl)cc2)CC1 | > 100 µM | > 100 µM |  |  | 
O=C(NCCc1ccncc1)C1CCN(C(=O)c2ccccc2Nc2ccccc2)CC1 | 28.8 µM | > 100 µM | 10.9% | > 250 µg/mL | 
O=C(NCCc1ccncc1)C1CCN(C(=O)c2ccccc2NCCc2ccc(Cl)cc2)CC1 | 3.49 µM | 86 µM | 30.7% | > 250 µg/mL | 
O=C(NCCc1ccncc1)C1CCN(C(=O)c2cccc3c2[nH]c2ccccc23)CC1 | 59.2 µM | > 100 µM |  |  | 
O=C(NCCc1ccncc1)C1CCN(c2cc(=O)n(-c3ccc(Cl)cc3)c3ccccc23)CC1 |  | > 100 µM |  |  | 
O=C(NCCc1ccncc1)C1CCN(C(=O)c2ccccc2NCc2ccccc2)CC1 | 19 µM | 92.2 µM | 2.5% | > 250 µg/mL | 
O=C(NCCc1ccncc1)C1CCN(C(=O)[C@H]2CCCN2Cc2ccc(Cl)cc2)CC1 | 53.5 µM | > 100 µM |  |  | 
COc1cc2c(cc1OC)CN(CCc1ccc(NC(=O)c3cc(OC)c(OC)cc3NC(=O)c3cnc4ccccc4c3)cc1)CC2 |  |  |  |  | Activity [18]: 1123%
O=C(NCCc1ccncc1)C1CCN(C(=O)c2cccn2Cc2ccc(Cl)cc2)CC1 | 0.68 µM | > 100 µM |  |  | half-life at 1 µM [19]: 3 min; solubility kinetic [11]: 125 µg/mL
O=C(NCCc1ccncc1)C1CCN(C(=O)[C@@H]2CCCN2C(=O)c2ccc(Cl)cc2)CC1 | > 100 µM |  |  |  | 
O=C(NCCc1ccncc1)C1CCN(C(=O)c2cccc3c2[nH]c2ccc(Cl)cc23)CC1 | 18.7 µM | 66.1 µM |  |  | 
O=C(NCCc1ccncc1)C1CCN(C(=O)c2cc3ccccc3n2Cc2ccc(Cl)cc2)CC1 | 0.53 µM |  |  |  | IC50 [3]: 1 µM; half-life at 1 µM [19]: 9 min; solubility kinetic [11]: 31 µg/mL; IC50 [12]: 0.1 µM
O=C(NCCc1ccncc1)C1CCN(C(=O)CCc2ccc(Cl)cc2)CC1 | > 100 µM | > 100 µM |  |  | 
